# Data taken from patent US20080063668A1, “Nitroimidazole and terconazole composition and method” (priority 2006, published 2008).
# Tests used:
# [1] = neutral pH; cited from earlier work
# [2] = test system: Mobiluncus curtisii var. curtisii ATCC 35241; test: Inhibition of bacteria growth, drug dilution tubes, anaerobic; type: cell-based; design: key: (+) for growth; (−) for no growth; (±) for suboptimal growth after an initial observation of growth
# Protocol: (§1) Serial dilutions of tinidazole and terconazole were prepared by adding measured amounts of each substance to water (both individually and in combination). Seven bacterial organisms that are common pathogens in bacterial vaginosis were grown anaerobically in the medium as listed in Table 4 under a N2/H2/CO2 (85:5:10) head space atmosphere. [table] These cultures were diluted to a 0.5 McFarland standard prior to inoculation of drug dilution tubes. One (1) mL of the 0.5 McFarland preparation was inoculated to an anaerobically prepared test tube containing 0.8 mL of Difco anaerobic medium (DAMM) and 0.2 mL of appropriate diluted antimicrobial or antimicrobial combination for a total of 2 mL. The inoculated tubes were then incubated at 37° C. and monitored daily for growth. Growth was scored with a (+) for growth, (−) for no growth, and (±) for suboptimal growth after an initial observation of growth. Tinidazole is abbreviated as TNZ and terconazole is abbreviated as TER in Tables 5 through 11.
# [3] = test system: Mobiluncus curtisii var. holmesii ATCC 35242; test: as above; type: cell-based; design: key: (+) for growth; (−) for no growth; (±) for suboptimal growth after an initial observation of growth
# Protocol: as §1
# [4] = test system: Bacteroides fragilis ATCC 25285; test: as above; type: cell-based; design: key: (+) for growth; (−) for no growth; (±) for suboptimal growth after an initial observation of growth
# Protocol: as §1
smiles,measurement,setting,value
"CC(C)N1CCN(c2ccc(OCC3COC(Cn4cncn4)(c4ccc(Cl)cc4Cl)O3)cc2)CC1 (stereo not drawn) [TER, cis-1-[p[[2-(2,4-dichlorophenyl)-2-(1 H-1,2,4-triazol-1-ylmethyl)-1,3-dioxolan-4-yl]methoxy]phenyl]-4-isopropylpiperazine]",solubility in water (in words),[1],substantially insoluble
same,growth,"[2]; TER 3.1 μg/ml, DAY 1",(+)
same,growth,"[2]; TER 3.1 μg/ml, DAY 2",(+)
same,growth,"[2]; TER 3.1 μg/ml, DAY 3",(+)
same,growth,"[2]; TER 3.1 μg/ml, DAY 4",(+)
same,growth,"[2]; TER 3.1 μg/ml, DAY 5",(+)
same,growth,"[2]; TER 6.2 μg/ml, DAY 1",(+)
same,growth,"[2]; TER 6.2 μg/ml, DAY 2",(+)
same,growth,"[2]; TER 6.2 μg/ml, DAY 3",(+)
same,growth,"[2]; TER 6.2 μg/ml, DAY 4",(+)
same,growth,"[2]; TER 6.2 μg/ml, DAY 5",(+)
same,growth,"[2]; TER 12.5 μg/ml, DAY 1",(+)
same,growth,"[2]; TER 12.5 μg/ml, DAY 2",(+)
same,growth,"[2]; TER 12.5 μg/ml, DAY 3",(+)
same,growth,"[2]; TER 12.5 μg/ml, DAY 4",(+)
same,growth,"[2]; TER 12.5 μg/ml, DAY 5",(+)
same,growth,"[2]; TER 25 μg/ml, DAY 1",(+)
same,growth,"[2]; TER 25 μg/ml, DAY 2",(+)
same,growth,"[2]; TER 25 μg/ml, DAY 3",(+)
same,growth,"[2]; TER 25 μg/ml, DAY 4",(+)
same,growth,"[2]; TER 25 μg/ml, DAY 5",(+)
same,growth,"[2]; TER 50 μg/ml, DAY 1",(+)
same,growth,"[2]; TER 50 μg/ml, DAY 2",(+)
same,growth,"[2]; TER 50 μg/ml, DAY 3",(+)
same,growth,"[2]; TER 50 μg/ml, DAY 4",(+)
same,growth,"[2]; TER 50 μg/ml, DAY 5",(+)
same,growth,"[2]; TER 100 μg/ml, DAY 1",(+)
same,growth,"[2]; TER 100 μg/ml, DAY 2",(+)
same,growth,"[2]; TER 100 μg/ml, DAY 3",(+)
same,growth,"[2]; TER 100 μg/ml, DAY 4",(+)
same,growth,"[2]; TER 100 μg/ml, DAY 5",(+)
same,growth,"[2]; TER 200 μg/ml, DAY 1",(−)
same,growth,"[2]; TER 200 μg/ml, DAY 2",(+)
same,growth,"[2]; TER 200 μg/ml, DAY 5",(+)
same,growth,"[2]; TER 400 μg/ml, DAY 1",(−)
same,growth,"[2]; TER 400 μg/ml, DAY 2",(−)
same,growth,"[2]; TER 400 μg/ml, DAY 3",(−)
same,growth,"[2]; TER 400 μg/ml, DAY 4",(−)
same,growth,"[2]; TER 400 μg/ml, DAY 5",(+)
same,growth,"[2]; TER 800 μg/ml, DAY 1",(−)
same,growth,"[2]; TER 800 μg/ml, DAY 2",(−)
same,growth,"[2]; TER 800 μg/ml, DAY 3",(−)
same,growth,"[2]; TER 800 μg/ml, DAY 4",(−)
same,growth,"[2]; TER 800 μg/ml, DAY 5",(+)
same,growth,"[3]; TER 3.1 μg/ml, DAY 1",(+)
same,growth,"[3]; TER 3.1 μg/ml, DAY 2",(+)
same,growth,"[3]; TER 3.1 μg/ml, DAY 3",(+)
same,growth,"[3]; TER 3.1 μg/ml, DAY 4",(+)
same,growth,"[3]; TER 3.1 μg/ml, DAY 5",(+)
same,growth,"[3]; TER 6.2 μg/ml, DAY 1",(+)
same,growth,"[3]; TER 6.2 μg/ml, DAY 2",(+)
same,growth,"[3]; TER 6.2 μg/ml, DAY 3",(+)
same,growth,"[3]; TER 6.2 μg/ml, DAY 4",(+)
same,growth,"[3]; TER 6.2 μg/ml, DAY 5",(+)
same,growth,"[3]; TER 12.5 μg/ml, DAY 1",(+)
same,growth,"[3]; TER 12.5 μg/ml, DAY 2",(+)
same,growth,"[3]; TER 12.5 μg/ml, DAY 3",(+)
same,growth,"[3]; TER 12.5 μg/ml, DAY 4",(+)
same,growth,"[3]; TER 12.5 μg/ml, DAY 5",(+)
same,growth,"[3]; TER 25 μg/ml, DAY 1",(+)
same,growth,"[3]; TER 25 μg/ml, DAY 2",(+)
same,growth,"[3]; TER 25 μg/ml, DAY 3",(+)
same,growth,"[3]; TER 25 μg/ml, DAY 4",(+)
same,growth,"[3]; TER 25 μg/ml, DAY 5",(+)
same,growth,"[3]; TER 50 μg/ml, DAY 1",(+)
same,growth,"[3]; TER 50 μg/ml, DAY 2",(+)
same,growth,"[3]; TER 50 μg/ml, DAY 3",(+)
same,growth,"[3]; TER 50 μg/ml, DAY 4",(+)
same,growth,"[3]; TER 50 μg/ml, DAY 5",(+)
same,growth,"[3]; TER 100 μg/ml, DAY 1",(+)
same,growth,"[3]; TER 100 μg/ml, DAY 2",(+)
same,growth,"[3]; TER 100 μg/ml, DAY 3",(+)
same,growth,"[3]; TER 100 μg/ml, DAY 4",(+)
same,growth,"[3]; TER 100 μg/ml, DAY 5",(+)
same,growth,"[3]; TER 200 μg/ml, DAY 1",(+)
same,growth,"[3]; TER 200 μg/ml, DAY 5",(+)
same,growth,"[3]; TER 400 μg/ml, DAY 1",(+)
same,growth,"[3]; TER 400 μg/ml, DAY 5",(+)
same,growth,"[3]; TER 800 μg/ml, DAY 1",(+)
same,growth,"[3]; TER 800 μg/ml, DAY 5",(+)
same,growth,"[4]; TER 3.1 μg/ml, DAY 1",(+)
same,growth,"[4]; TER 3.1 μg/ml, DAY 2",(+)
same,growth,"[4]; TER 3.1 μg/ml, DAY 3",(+)
same,growth,"[4]; TER 3.1 μg/ml, DAY 4",(+)
same,growth,"[4]; TER 3.1 μg/ml, DAY 5",(+)
same,growth,"[4]; TER 6.2 μg/ml, DAY 1",(+)
same,growth,"[4]; TER 6.2 μg/ml, DAY 2",(+)
same,growth,"[4]; TER 6.2 μg/ml, DAY 3",(+)
same,growth,"[4]; TER 6.2 μg/ml, DAY 4",(+)
same,growth,"[4]; TER 6.2 μg/ml, DAY 5",(+)
same,growth,"[4]; TER 12.5 μg/ml, DAY 1",(+)
same,growth,"[4]; TER 12.5 μg/ml, DAY 2",(+)
same,growth,"[4]; TER 12.5 μg/ml, DAY 3",(+)
same,growth,"[4]; TER 12.5 μg/ml, DAY 4",(+)
same,growth,"[4]; TER 12.5 μg/ml, DAY 5",(+)
same,growth,"[4]; TER 25 μg/ml, DAY 1",(+)
same,growth,"[4]; TER 25 μg/ml, DAY 2",(+)
same,growth,"[4]; TER 25 μg/ml, DAY 3",(+)
same,growth,"[4]; TER 25 μg/ml, DAY 4",(+)
same,growth,"[4]; TER 25 μg/ml, DAY 5",(+)
same,growth,"[4]; TER 50 μg/ml, DAY 1",(+)
same,growth,"[4]; TER 50 μg/ml, DAY 2",(+)
same,growth,"[4]; TER 50 μg/ml, DAY 3",(+)
same,growth,"[4]; TER 50 μg/ml, DAY 4",(+)
same,growth,"[4]; TER 50 μg/ml, DAY 5",(+)
same,growth,"[4]; TER 100 μg/ml, DAY 1",(+)
same,growth,"[4]; TER 100 μg/ml, DAY 2",(+)
same,growth,"[4]; TER 100 μg/ml, DAY 3",(+)
same,growth,"[4]; TER 100 μg/ml, DAY 4",(+)
same,growth,"[4]; TER 100 μg/ml, DAY 5",(+)
same,growth,"[4]; TER 200 μg/ml, DAY 1",(−)
same,growth,"[4]; TER 200 μg/ml, DAY 2",(−)
same,growth,"[4]; TER 200 μg/ml, DAY 3",(+)
same,growth,"[4]; TER 200 μg/ml, DAY 4",(+)
same,growth,"[4]; TER 200 μg/ml, DAY 5",(+)
same,growth,"[4]; TER 400 μg/ml, DAY 1",(−)
same,growth,"[4]; TER 400 μg/ml, DAY 2",(−)
same,growth,"[4]; TER 400 μg/ml, DAY 3",(−)
same,growth,"[4]; TER 400 μg/ml, DAY 4",(−)
same,growth,"[4]; TER 400 μg/ml, DAY 5",(−)
same,growth,"[4]; TER 800 μg/ml, DAY 1",(−)
same,growth,"[4]; TER 800 μg/ml, DAY 2",(−)
same,growth,"[4]; TER 800 μg/ml, DAY 3",(−)
same,growth,"[4]; TER 800 μg/ml, DAY 4",(−)
same,growth,"[4]; TER 800 μg/ml, DAY 5",(−)
